Test results published in PubChem BioAssay AID248 (DTP/NCI, 2004).
Inconclusive results and toxic doses are left out.

Test system: L1210 leukemia ip in BDF1 mice, survival T/C
Assay: NCI In Vivo Anticancer Drug Screen. Data for tumor model L1210 Leukemia (intraperitoneal) in B6D2F1 (BDF1) mice
Settings: endpoint: mean survival time, higher = longer survival
How it was run: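 Transplanted-tumor mice were given test agent; controls received vehicle only. Survival readings from the two groups were divided (treated over control).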

[1] = dose: 100.0 mg/kg/injection, schedule: Q01DX009 (ip), vehicle: Klucel (hydroxypropylcellulose) (HPC)
[2] = dose: 200.0 mg/kg/injection, schedule: Q01DX009 (ip), vehicle: Klucel (hydroxypropylcellulose) (HPC)
[3] = dose: 50.0 mg/kg/injection, schedule: Q01DX001 (ip), vehicle: carboxymethylcellulose (CMC)
[4] = dose: 100.0 mg/kg/injection, schedule: Q01DX001 (ip), vehicle: carboxymethylcellulose (CMC)
[5] = dose: 400.0 mg/kg/injection, schedule: Q01DX001 (ip), vehicle: carboxymethylcellulose (CMC)
[6] = dose: 400.0 mg/kg/injection, schedule: Q01DX009 (ip), vehicle: Klucel (hydroxypropylcellulose) (HPC)
[7] = dose: 100.0 mg/kg/injection, schedule: Q01DX001 (ip), vehicle: saline
[8] = dose: 200.0 mg/kg/injection, schedule: Q01DX001 (ip), vehicle: saline

SMILES: O=C(O)c1ccc(Cl)o1
- T/C [1]: 97 % of control
- T/C [2]: 98 % of control

SMILES: COc1cc(N(CCCl)CCCl)c(OC)cc1/C=N\Nc1nnc(C)n1N
- T/C (dose: 2.5 mg/kg/injection, schedule: Q01DX015 (ip), vehicle: carboxymethylcellulose (CMC)): 115 % of control
- T/C (dose: 5.0 mg/kg/injection, schedule: Q01DX015 (ip), vehicle: carboxymethylcellulose (CMC)): 121 % of control
- T/C (dose: 10.0 mg/kg/injection, schedule: Q01DX015 (ip), vehicle: carboxymethylcellulose (CMC)): 155 % of control
- T/C (dose: 30.0 mg/kg/injection, schedule: Q01DX015 (ip), vehicle: carboxymethylcellulose (CMC)): 103 % of control
- T/C (dose: 44.0 mg/kg/injection, schedule: Q01DX001 (ip), vehicle: carboxymethylcellulose (CMC)): 103 % of control
- T/C [3]: 120 % of control
- T/C (dose: 67.0 mg/kg/injection, schedule: Q01DX001 (ip), vehicle: carboxymethylcellulose (CMC)): 115 % of control
- T/C [4]: 161 % of control
- T/C [5]: 97 % of control

SMILES: O=C(CCCCC(=O)N=C(c1ccccc1)c1ccccc1)N=C(c1ccccc1)c1ccccc1
- T/C (dose: 222.0 mg/kg/injection, schedule: Q01DX Z (ip), vehicle: methylcellulose (MC)): 93 % of control
- T/C (dose: 333.0 mg/kg/injection, schedule: Q01DX Z (ip), vehicle: methylcellulose (MC)): 98 % of control
- T/C (dose: 500.0 mg/kg/injection, schedule: Q01DX Z (ip), vehicle: methylcellulose (MC)): 97 % of control

SMILES: Nc1nccnc1C(=O)O
- T/C (dose: 25.0 mg/kg/injection, schedule: Q01DX009 (ip), vehicle: water): 100 % of control
- T/C (dose: 50.0 mg/kg/injection, schedule: Q01DX009 (ip), vehicle: water): 96 % of control
- T/C (dose: 100.0 mg/kg/injection, schedule: Q01DX009 (ip), vehicle: water): 100 % of control
- T/C (dose: 200.0 mg/kg/injection, schedule: Q01DX009 (ip), vehicle: water): 96 % of control

SMILES: C=C1C2CCC3C4(C)CC(OC5OC(CO)C(OS(=O)(=O)O)C(OS(=O)(=O)O)C5OC(=O)CCCC)CC(C(=O)O)(C(=O)O)C4CCC3(C2)C1O (stereo not given)
- T/C (dose: 3.12 mg/kg/injection, schedule: Q04DX002 (ip), vehicle: saline): 103 % of control
- T/C (dose: 6.25 mg/kg/injection, schedule: Q04DX002 (ip), vehicle: saline): 95 % of control

SMILES: CC[Si](CC)(CC)c1ccc(CCNCCS)s1
- T/C (dose: 75.0 mg/kg/injection, schedule: Q04DX003 (ip), vehicle: saline): 95 % of control
- T/C (dose: 150.0 mg/kg/injection, schedule: Q04DX003 (ip), vehicle: saline): 93 % of control

SMILES: CC(=O)OC1CC2C=CC1CC2 (stereo not given)
- T/C [3]: 111 % of control
- T/C [4]: 101 % of control
- T/C (dose: 200.0 mg/kg/injection, schedule: Q01DX001 (ip), vehicle: carboxymethylcellulose (CMC)): 95 % of control
- T/C [5]: 101 % of control

SMILES: CN(C)C(=O)Sc1ccc(Cl)cc1S(=O)(=O)F
- T/C [1]: 97 % of control
- T/C [2]: 100 % of control
- T/C [6]: 89 % of control

SMILES: CCCCCCCCCCCCCCCCS(=O)(=O)c1ccc(S(=O)(=O)CS(C)(=O)=O)cc1[N+](=O)[O-]
- T/C (dose: 100.0 mg/kg/injection, schedule: Q01DX001 (ip), vehicle: other): 98 % of control
- T/C (dose: 200.0 mg/kg/injection, schedule: Q01DX001 (ip), vehicle: other): 91 % of control

SMILES: CCOC(=O)CNS(=O)(=O)c1ccccc1
- T/C [7]: 98 % of control
- T/C [8]: 101 % of control
- T/C (dose: 400.0 mg/kg/injection, schedule: Q01DX001 (ip), vehicle: saline): 101 % of control

SMILES: CNC(=S)N/N=C/c1cnccn1
- T/C (dose: 50.0 mg/kg/injection, schedule: Q01DX001 (ip), vehicle: saline): 100 % of control
- T/C [7]: 100 % of control
- T/C [8]: 104 % of control

SMILES: Cc1ccc(Nc2cc(=O)[nH]c(N)n2)cc1Cl
- T/C (dose: 100.0 mg/kg/injection, schedule: Q01DX Z (ip), vehicle: methylcellulose (MC)): 86 % of control
- T/C (dose: 200.0 mg/kg/injection, schedule: Q01DX Z (ip), vehicle: methylcellulose (MC)): 103 % of control

SMILES: CCC1(O)CC2CN(CCc3c([nH]c4ccccc34)C(C(=O)OC)(c3cc4c(cc3OC)N(C)C3C(O)(C(N)=O)C(O)C5(CC)C=CCN6CCC43C65)C2)C1 (stereo not given) (tested in a mixture with another compound)
- T/C (dose: 0.43 mg/kg/injection, schedule: Q01DX009 (ip), vehicle: saline): 124 % of control
- T/C (dose: 1.2 mg/kg/injection, schedule: Q01DX009 (ip), vehicle: saline): 97 % of control
- T/C (dose: 648.0 micrograms/kg/injection, schedule: Q04DX003 (ip), vehicle: saline): 123 % of control
- T/C (dose: 5000.0 micrograms/kg/injection, schedule: Q04DX003 (ip), vehicle: saline): 111 % of control

SMILES: CSc1ccc(C(=NO)c2ccc(SC)cc2)cc1
- T/C [1]: 95 % of control
- T/C (dose: 100.0 mg/kg/injection, schedule: Q04DX003 (ip), vehicle: Klucel (hydroxypropylcellulose) (HPC)): 101 % of control
- T/C [2]: 103 % of control
- T/C (dose: 200.0 mg/kg/injection, schedule: Q04DX003 (ip), vehicle: Klucel (hydroxypropylcellulose) (HPC)): 94 % of control
- T/C [6]: 95 % of control
- T/C (dose: 400.0 mg/kg/injection, schedule: Q04DX003 (ip), vehicle: Klucel (hydroxypropylcellulose) (HPC)): 103 % of control

SMILES: COc1cc2c(c(Oc3ccc(C)cc3)c1)CN(C)CC2
- T/C (dose: 100.0 mg/kg/injection, schedule: Q04DX003 (ip), vehicle: saline): 98 % of control
